# US8951999B2, “Compounds” (Orexo AB, priority 2009, dated 2015)
# Molecular target: T1, recombinant human mPGES-1 (Homo sapiens, UniProt O14684)
# T1 sequence (O14684 1-152): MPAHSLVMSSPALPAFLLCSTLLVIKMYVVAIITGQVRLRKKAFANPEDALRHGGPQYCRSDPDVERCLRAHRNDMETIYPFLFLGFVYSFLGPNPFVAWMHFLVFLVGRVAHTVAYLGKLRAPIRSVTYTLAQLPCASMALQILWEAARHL
# Assay: Assay A: mPGES-1 enzyme assay (HTRF detection of PGE2)
# Assay type: biochemical
# Conditions: biological assay A (compounds 1-41, 54, 55, 62, 73); PGE2 formation from PGH2, HTRF; read-out: mPGES-1 inhibitory effect IC50
# From the text: Assay A: mPGES-1 Enzyme Assay
# The basis of the assay used is to measure the inhibition of microsomal prostaglandin E2 synthase-1 (mPGES-1) dependent prostaglandin (PG) E2 formation from PGH2 by different compounds. Thus, the formation of PGE2 is used as signal and a lowering of this signal can be interpreted as inhibition of mPGES-1. Similar assays to measure inhibition of mPGES-1 have previously been described in the literature.
# • Glutathione (Sigma, G-4251) • Freeze culture in Rosetta E coli expression strain. • LB growth media with Ampillicillin (Amp) final concentration in culture 50 μg/mL • Chloroamphenicol stock 34 mg/mL (chloro) final concentration in culture 34 μg/mL • Sterile growth flasks for 500 mL-1 liter cultures • 0.1 M KPi buffer pH 7.4 • 9.25% HCl • PGH2 (0.25 mM) • Fe (II) Cl2 tetrahydrate, 99% (Sigma, 220229) • 384-well plate with compounds • 96-well plate, polypropylene (Thermo fast 96 skirted VWR) • 384-well plate polypropylene PCR plate (Greiner 785201) • Greiner 384-well plate pp (In vitro cat. no. 781280) • Adhesive sealing film for 96-well plates (Sigma-Aldrich) • Aluminium foil (PCR foil, 310-0030-127-471 from Labora) • PBS (GIBCO 14040) • Prostaglandin E2 Assay (Cisbio, cat. no. 62P2APEC) • Biomek FX robot (Beckman Coulter) • Biomek NX robot (Beckman Coulter) • Multidrop; micro or combi (ThermoLabsystems) • Plate reader: Safire2 (Tecan)
# Microsomes from Rosetta E. coli bacteria expressing recombinant human mPGES-1 can be derived as described below:
# Inoculate 5 mL LB with Amp and Chloro with bacteria from freeze culture. Incubate over night at 37° C. with 200 rpm. Thereafter, inoculate 500-800 mL LB containing Amp and Chloro with the 5 mL on culture and grow to OD640 of 0.6-0.8. Chill the culture to +4° C. before induction. Induce the culture with IPTG at a final concentration of 400 μM. Express the protein at room temp 18-23° C. with 200 rpm shaking over night.
# The following steps can be performed on the following day: • 1. Spin down the cells in 250 mL centrifuge flasks for 15 min at 7000 rpm • 2. Dissolve the pellet from 250 mL culture in 12.5 mL homogenization buffer • 3. Disintegrate the cells by sonication, 4×10 seconds at 35% amplitude • 4. Add 2.5 mL MgCl2 (100 mM) and DNase 12.5 μL (0.8 mg/mL) and incubate on ice for 30 min • 5. Spin down the bacteria debris and save the supernatant, 7000 rpm for 15 min • 6. Isolate the protein containing membranes in the supernatant by ultracentrifugation 45000×g for 1 hour. • 7. Discard the supernatant and dissolve the pellet in 20 mM KPi buffer and aliquot the enzyme and store aliquots at −80° C.
# Before each experiment is performed an aliquot of the enzyme is thawed and it can then be dissolved in 0.1 M KPi pH 7.4 buffer containing 2.5 mM GSH. 50 μL of this enzyme solution is subsequently dispensed in a 384-well plate at room temperature. 0.5 μL of the inhibitor dissolved in DMSO is thereafter added to each well and incubated for 25 minutes at room temperature. Subsequently, 2 μL of PGH2 dissolved in an appropriate solvent is added to each well and after one minute at room temperature, the acidified stop solution containing FeCl2 is added. 4 μL of the total volume is transferred to a separate plate and diluted 750-fold in two separate steps before quantification of PGE2.
# In order to quantitate the amount of PGE2 that has been formed, a homogenous time resolved fluorescent (HTRF) detection of PGE2 can be performed by the use of a commercially available kit from CisBio essentially according to the manufacturer's protocol. […]
row,Compound,IC50 [nM]
1,"CNC(=O)c1cc(NC(=O)c2cc(CNC(=O)C3(C)CCCCC3)ccc2C)ccc1Cl [Example 1, N-(4-Chloro-3-methylaminocarbonyl-phenyl)-2-methyl-5-[(1-methylcyclohexylcarbonylamino)methyl]-benzamide]",~1600
2,COc1ccc(NC(=O)c2cc(CNC(=O)c3c(F)ccc(F)c3Cl)ccc2Cl)cc1C(=O)Nc1ccc(Br)cc1 [Example 23],1
3,"CC(C)(C)C(=O)NCc1ccc(Cl)c(C(=O)Nc2ccc(Cl)c(C(=O)Nc3ccc(Br)cc3)c2)c1 [Example 3, N-[4-Chloro-3-(4-bromophenyl)aminocarbonyl-phenyl]-2-chloro-5-(tert-butylcarbonylamino)methyl-benzamide]",22
4,COc1ccc(NC(=O)c2cc(CNC(=O)c3cccnc3Cl)ccc2Cl)cc1C(=O)Nc1ccc(Br)cc1 [Example 24],2
5,"COc1ccc(NC(=O)c2cc(CNC(=O)C(C)(C)C)ccc2Cl)cc1C(=O)Nc1ccc(Br)cc1 [Example 4, N-[4-Methoxy-3-(4-bromophenyl)aminocarbonyl-phenyl]-2-chloro-5-(tert-butylcarbonylamino)methyl-benzamide]",1
6,COc1ccc(NC(=O)c2cc(CNC(=O)C3(C(F)(F)F)CCCC3)ccc2Cl)cc1C(=O)Nc1ccc(Br)cc1 [Example 22],2
7,CC(C)(C)C(=O)NCc1ccc(Cl)c(C(=O)Nc2ccc(OCC(F)(F)F)c(C(=O)NCC3CC3)c2)c1 [Example 41],3
8,CC(C)(C)C(=O)NCc1ccc(Cl)c(C(=O)Nc2ccc(Cl)c(C(=O)NC3CC3)c2)c1 [Example 20],~3000
9,COc1ccc(NC(=O)c2cc(CNC(=O)C(C)(C)C)ccc2Cl)cc1C(=O)N[C@H]1CC[C@@H](C(F)(F)F)CC1 [Example 19],4
10,COc1ccc(NC(=O)c2cc(CNC(=O)c3c(F)cccc3C(F)(F)F)ccc2Cl)cc1C(=O)Nc1ccc(Br)cc1 [Example 26],3
11,COc1ccc(NC(=O)c2cc(CNC(=O)C(C)(C)C)ccc2Cl)cc1C(=O)NC1CC1 [Example 35],~500
12,CC(C)(C)C(=O)NCc1ccc(Cl)c(C(=O)Nc2ccc(OCC(F)F)c(C(=O)NCC3CCC3)c2)c1 [Example 12],3
13,O=C(Nc1ccc(Cl)c(C(=O)NC2CC2)c1)c1cc(CNC(=O)C2CC2)ccc1Cl [Example 21],~1800
14,CC(C)(C)C(=O)NCc1ccc(Cl)c(C(=O)Nc2ccc(OCC(F)F)c(C(=O)Nc3ccc(Br)cc3)c2)c1 [Example 15],2
15,COc1ccc(NC(=O)c2cc(CNC(=O)c3c(F)cccc3Cl)ccc2Cl)cc1C(=O)Nc1ccc(Br)cc1 [Example 25],1

# The remaining lines, values ahead:
row,IC50 [nM],Compound
1,11,"CN(C)c1ccc(NC(=O)c2cc(CNC(=O)C(C)(C)C)ccc2Cl)cc1C(=O)N[C@H]1CC[C@H](C(F)(F)F)CC1 [Example 62, N-[4-(dimethylamino)-3-(trans-4-trifluoromethylcyclohexyl)aminocarbonyl-phenyl]-2-chloro-5-(tert-butylcarbonylamino)methyl-benzamide]"
2,2,COc1ccc(NC(=O)c2cc(CNC(=O)C3(C(F)(F)F)CC3)ccc2Cl)cc1C(=O)Nc1ccc(Br)cc1 [Example 31]
3,4,"CC(C)(C)C(=O)NCc1ccc(Cl)c(C(=O)Nc2ccc(OCC(F)F)c(C(=O)Nc3ccc(F)c(Cl)c3)c2)c1 [Example 7, N-[4-(2,2-Difluoroethyl)oxy-3-(4-fluoro-3-chloro-phenyl)aminocarbonyl-phenyl]-2-chloro-5-(tert-butylcarbonylamino)methyl-benzamide]"
4,2,CCC(C)(CC)C(=O)NCc1ccc(Cl)c(C(=O)Nc2ccc(OC)c(C(=O)Nc3ccc(Br)cc3)c2)c1 [Example 34]
5,2,"COc1ccc(NC(=O)c2cc(CNC(=O)C(C)(C)C(F)(F)F)ccc2Cl)cc1C(=O)Nc1ccc(Br)cc1 [Example 9, N-[4-Methoxy-3-(4-bromophenyl)aminocarbonyl-phenyl]-2-chloro-5-(2,2,2-trifluoro-1,1-dimethyl-ethyl)carbonylaminomethyl-benzamide]"
6,9,"CC(C)(C)C(=O)NCc1ccc(Cl)c(C(=O)Nc2cc(F)c(F)c(C(=O)Nc3ccc(Br)cc3)c2)c1 [Example 54, N-[3,4-Difluoro-5-(4-bromophenyl)aminocarbonyl-phenyl]-2-chloro-5-(tert-butylcarbonylamino)methyl-benzamide]"
7,~900,"O=C(NCc1ccc(Cl)c(C(=O)Nc2ccc(Cl)c(C(=O)NC3CC3)c2)c1)c1ccc(Cl)s1 [Example 10, N-[4-Chloro-3-cyclopropylaminocarbonyl-phenyl]-2-chloro-5-(5-chloro-thien-2-yl)carbonylaminomethyl-benzamide]"
8,2,COc1ccc(NC(=O)c2cc(CNC(=O)C3CCCCC3C)ccc2Cl)cc1C(=O)Nc1ccc(Br)cc1 (stereo not drawn) [Example 29]
9,7,"CC(C)(C(=O)NCc1ccc(Cl)c(C(=O)Nc2cnc(OCC(F)F)c(C(=O)Nc3ccc(Br)cc3)c2)c1)C(F)(F)F [Example 73, N-[2-(2,2-Difluoroethyl)oxy-3-(4-bromophenyl)aminocarbonyl-pyridin-5-yl]-2-chloro-5-[(2,2,2-trifluoro-1,1-dimethyl-ethyl)carbonylamino]methyl-benzamide]"
10,14,COc1ccc(NC(=O)c2cc(CNC(=O)C(C)(C)C)ccc2Cl)cc1C(=O)NCc1ccccc1C(F)(F)F [Example 16]
11,2,"CC(C)(C)C(=O)NCc1ccc(Cl)c(C(=O)Nc2cnc(OCC(F)F)c(C(=O)Nc3ccc(Br)cc3)c2)c1 [Example 6, N-[2-(2,2-Difluoroethyl)oxy-3-(4-bromophenyl)aminocarbonyl-pyridin-5-yl]-2-chloro-5-(tert-butylcarbonylamino)methyl-benzamide]"

# Molecular target: T1, recombinant human mPGES-1
# Assay: Assay B: mPGES-1 enzyme assay (modified)
# Assay type: biochemical
# Conditions: biological assay B (all other compounds); PGH2 final conc. 2 μM, HTRF; read-out: mPGES-1 inhibitory effect IC50
# How it was run: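 Microsomal recombinant human mPGES-1 preincubated 25 min at room temperature with compound in pH 7.4 phosphate buffer containing 2.5 mmol/L GSH; reaction started with 2 μM PGH2 (final), stopped with FeCl2 after 60 s. PGE2 quantified by HTRF against calibration curve; IC50 by nonlinear regression after background subtraction.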
row,Compound,IC50 [nM]
1,CC(C)(C)C(=O)NCc1ccc(F)c(C(=O)Nc2cnc(OCC(F)F)c(C(=O)Nc3ccc(Br)cc3)c2)c1F [Example 74],47
2,CC(C)(C(=O)NCc1ccc(Cl)c(C(=O)Nc2ccc(OCC(F)F)c(C(=O)Nc3cc(C(F)(F)F)ccn3)c2)c1)C(F)(F)F [Example 109],13

# More lines, now with the values ahead:
row,IC50 [nM],Compound
1,5,CC(C)(C(=O)NCc1ccc(Cl)c(C(=O)Nc2ccc(OCC(F)F)c(C(=O)Nc3ccc(F)c(Cl)c3)c2)c1)C(F)(F)F [Example 128]
2,6,CC(C)(C(=O)NCc1ccc(Cl)c(C(=O)Nc2ccc(OCC(F)F)c(C(=O)NCc3ccccc3OC(F)(F)F)c2)c1)C(F)(F)F [Example 132]
3,5,CC(C)(C(=O)NCc1ccc(Cl)c(C(=O)Nc2ccc(OCC(F)F)c(C(=O)NCC3CCCCC3)c2)c1)C(F)(F)F [Example 129]
4,11,"COCCOc1ccc(NC(=O)c2cc(CNC(=O)C3(C(F)(F)F)CC3)ccc2Cl)cc1C(=O)N[C@H]1CC[C@H](C(F)(F)F)CC1 [Example 53, N-[4-(2-Methoxy)ethoxy-3-(trans-4-trifluoromethylcyclohexyl)aminocarbonyl-phenyl]-2-chloro-5-[1-(trifluoromethyl)cyclopropyl]carbonylaminomethyl-benzamide]"
5,5,Cc1ccc(Cl)cc1NC(=O)c1cc(NC(=O)c2cc(CNC(=O)C(C)(C)C(F)(F)F)ccc2Cl)ccc1OCC(F)F [Example 86]
